According to US20230295171A1, “FUSED HETEROAROMATIC PYRROLIDINONES” (Calithera Biosciences, Inc., priority 2009, published 2023):

Molecular target: SYK (Homo sapiens (Human), UniProt P43405)
Assay: SYK inhibition assay (phosphorylation of FAM-labeled SYK-specific substrate, Caliper LC-3000)
Format: biochemical
Conditions: SYK kinase domain (residues 356-635); 5FAM-KKKKEEIYFFFG-NH2 substrate, ATP, 60 min at RT; pIC50 = -log(IC50), IC50 molar
Description: SYK protein is prepared from cDNA encoding human spleen tyrosine kinase and is expressed in insect cells using a baculovirus expression vector. […] The recombinant bacmid DNA is isolated and transfected into Sf9 insect cells. Recombinant virus is harvested 72 h after transfection. High titer viral stock is prepared by infecting Sf9 cells at a multiplicity of infection (MOI) of approximately 0.01. A suspension of Sf9 cells (10 L) is infected with recombinant virus (MOI=5) and is incubated in a Wave Bioreactor (GE-Healthcare) for 48 h. The cells are harvested and stored at −80° C.
To purify the expressed protein, the frozen Sf9 cells (10 L) are broken into small (<1 cm) particles and suspended in a lysis buffer (300 mL) containing 20 mM Tris (pH 7.6), 0.25 mM TCEP, 100 mM NaCl, 5% glycerol and a protease inhibitor. The suspension is stirred at RT until completely thawed, lysed an additional 2-4 min on a rotary blade homogenizer, and then centrifuged at 4200 g for 1 h. Following centrifugation, the supernatant is poured through cheese cloth and combined with a nickel chelating resin (Probond Resin™, Invitrogen) which is pre-equilibrated in a wash buffer containing 10 mM Tris (pH 7.6), 0.25 mM TCEP, 300 mM NaCl, 5% glycerol, and 20 mM imidazole. The mixture is agitated for 3 h in a cold room and then centrifuged at 900 g for 10 min. The resin is dispersed in wash buffer (50 mL), centrifuged for 10 min at 900 g, re-dispersed in a small amount of wash buffer (5 mL), and then pour into a disposable Poly-Prep chromatography column, through which wash buffer is passed by gravity until no protein is observed in coomassie buffer (about 120 mL of wash buffer). An elution buffer (30 mL) containing 10 mM HEPES (pH 7.4), 150 mM NaCl, 10% glycerol, 5 mM DTT, and 400 mM imidazole is used to elute the SYK protein from the resin. The eluate is concentrated (5 mL) and further purified on a Superdex 200 column (1.2 mL/min for 160 min, 10 mM HEPES (pH 7.4), 10 mM NaCl, 10 mM MgCl, 0.1 mM EDTA, and 0.25 mM TCEP). The chromatographed fractions are run on SDS-PAGE and the requisite fractions are pooled and concentrated. Final delivery buffer is 10 mM HEPES (pH 7.4), 10 mM Methione, 150 mM NaCl, 10% glycerol, 5 mM DTT.
SYK inhibition is determined using a black 384 well plate format in buffer containing 50 mM HEPES, 10 mM NaCl, 10 mM MgCl2, 0.2 mM EDTA, 0.01% EDA (Brij® 35), 1 mM DTT, and 0.1 mg/ml BSA at pH 7.3. Each test compound is prepared in DMSO using 2-fold serial dilutions for 11 data points, which are added to the buffer so that each dilution contains 3% DMSO. […] The reaction mixture is incubated at RT for 60 min, and quenched by adding 50 mM Hepes, 30 mM EDTA, 0.1% Triton X-100 (pH 7.3). To quantify the fluorescent-labeled substrate and product following reaction, the test plate is loaded on a Caliper LC-3000, which measures percent of conversion by microfluidic-based separation. Corresponding IC50 values are calculated by non-linear curve fitting of the compound concentrations and percent of inhibition to the standard IC50 equation and reported as pIC50, i.e., −log(IC50), where IC50 is molar concentration.

| SMILES | SYK Inhibition (pIC50) |
| --- | --- |
| Cc1cccc(Nc2nc(N[C@@H]3CCCC[C@@H]3O)nc3c2C(=O)NC3)c1 (relative stereo) [Example 11, cis-2-(2-Hydroxycyclohexylamino)-4-(m-tolylamino)-6,7-dihydro-5H-pyrrolo[3,4-d]pyrimidin-5-one] | 5.9 |
| Cc1cccc(Nc2nc(N[C@@H]3COC[C@@H]3N)cc3c2C(=O)NC3)c1 (relative stereo) [Example 58, 6-(cis-4-Aminotetrahydrofuran-3-ylamino)-4-(m-tolylamino)-1H-pyrrolo[3,4-c]pyridin-3(2H)-one] | 5.8 |
| Cn1cc(-c2nc(N[C@@H]3CC(F)(F)C[C@@H]3N)c(F)c3c2C(=O)NC3)cn1 (relative stereo) [Example 66, 6-(cis-2-Amino-4,4-difluorocyclopentylamino)-7-fluoro-4-(1-methyl-1H-pyrazol-4-yl)-1H-pyrrolo[3,4-c]pyridin-3(2H)-one] | 6.3 |
| Cn1cc(-c2nc(N[C@@H]3CCCC(F)(F)[C@@H]3N)c(F)c3c2C(=O)NC3)cn1 (relative stereo) [Example 67, 6-(cis-2-Amino-3,3-difluorocyclohexylamino)-7-fluoro-4-(1-methyl-1H-pyrazol-4-yl)-1H-pyrrolo[3,4-c]pyridin-3(2H)-one] | 7.4 |
| N[C@@H]1[C@H](Nc2nc(-c3cnn(C(F)F)c3)c3c(c2F)CNC3=O)CCCC1(F)F (relative stereo) [Example 68, 6-(cis-2-Amino-3,3-difluorocyclohexylamino)-4-(1-(difluoromethyl)-1H-pyrazol-4-yl)-7-fluoro-1H-pyrrolo[3,4-c]pyridin-3(2H)-one] | 7.0 |
| N[C@@H]1[C@H](Nc2nc(-c3cnn(C4CC4)c3)c3c(c2F)CNC3=O)CCCC1(F)F (relative stereo) [Example 69, 6-(cis-2-amino-3,3-difluorocyclohexylamino)-4-(1-cyclopropyl-1H-pyrazol-4-yl)-7-fluoro-1H-pyrrolo[3,4-c]pyridin-3(2H)-one] | 6.8 |
| Cc1cccc(Nc2nc(N[C@H]3COCC[C@H]3N)cc3c2C(=O)NC3)c1 [Example 86, 6-((3R,4R)-4-Aminotetrahydro-2H-pyran-3-ylamino)-4-(m-tolylamino)-1H-pyrrolo[3,4-c]pyridin-3(2H)-one] | 5.6 |
